# Assays:
# primary hfRPE culture [1] = assay: UAM-induced senescence (β-galactosidase activity); assay type: cell-based, human
# Source text: FIG. 6. FLBZ alleviates UAM-induced senescence and tight-junction disruption. (A) (Top) FLBZ reduces senescence when fed concurrently with oxOS during UAM accumulation. (Bottom) FLBZ is unable to reverse established senescence induced by already accumulated UAM. FLBZ is fed daily together with oxOS for 20 days in a month (top) or after one month of 20 oxOS feedings to induce UAM buildup (bottom). DMSO as vehicle control. Senescence measured by β-galactosidase activity (blue). Scale bar: 50 μm. n=6. […] Left graph n=6, right graph n=12. ns p>0.05, *p<0.05, ***p<0.001.
# UAM accumulation and quantification as well as assays on senescence were carried out [Ref. 51; incorporated by reference in its entirety]. UAM granule size was measured with Leica LAS X software using the length of the long axis of the granule ellipse.
# [2] = test system: primary human fetal RPE (hfRPE) culture; assay: Autophagy induction by LC3 lipidation (LC3-II/LC3-I ratio) on Western blot; assay type: cell-based; conditions: 24 hours exposure, vs vehicle (DMSO)
# Protocol: (§1) Cell cultures were exposed to each putative autophagy inducer at a concentration indicated in Table 1 for 24 hours, lysed with 36 μL of SDS sample buffer with β-mercaptoethanol, with 15 μg of lysate loaded on a 4-15% gradient gel followed by transfer to a PVDF membrane. Blots were incubated with 1:1000 of LC3A/B antibody (Cell Signaling Technology; #4108s, RRID:AB_2137703) overnight. Quantifying LC3-II/LC3-I ratio is a well-accepted method for det 306 ermining autophagy induction [Ref. 44; incorporated by reference in its entirety], and this ratio was quantified in a non-saturated, linear range using the Azure c500 Imaging System (Azure Biosystems, Dublin, CA, USA) and a combination of AzureSpot and ImageJ software. The data in FIG. 2A are not normalized, whereas the data in FIGS. 2b and 1c are normalized to the average combined value of the vehicle and drug groups within each experimental repeat. The extreme pigmentation of human fetal cultures, combined with the destruction of the LC3 epitope with melanin bleaching protocols, makes detection of LC3 by microscopy in hfRPE difficult. A range of LC3 staining and puncta quantification protocols specifically adapted to pigmented hfRPE culture were employed [Ref. 43; incorporated by reference in its entirety]. At least five fields of view were randomly chosen and analyzed per experimental replicate for LC3 immunocytochemistry.
# To test for autophagy induction, lipidation of the core autophagy protein LC3 was measured by mobility shift on Western blots 24 hours after each compound was added to hfRPE cultures [Ref. 44; incorporated by reference in its entirety]. […] Of the more than 30 putative autophagy inducers tested, only five produced an increased ratio of LC3-II/LC3-I, consistent with increased autophagy (FIG. 2a).
# Autophagy induction was measured by LC3-II/LC3-I Ratios on Western Blot (standard method for autophagy induction) (FIG. 18A-C). Drugs were applied to primary human RPE culture for 24 hours.
# primary hfRPE culture [3] = test system: primary hfRPE culture
# Protocol: Phagocytosis assays using bovine outer segments was performed using the “pulse-only” method [Ref 43; incorporated by reference in its entirety]. Values at the zero-hour timepoint were used for normalization.
# primary RPE cultures = assay: Ketone body production (β-hydroxybutyrate, β-HB) fluorometric assay; assay type: cell-based, human; conditions: 24 hours, apical supernate
# Protocol: After 24 hours of exposure to drugs, supernates were collected and subjected to western blotting for APOE detection and a fluorometric assay for β-HB detection [Ref 51; incorporated by reference in its entirety]. Twenty microliters of apical and basolateral supernates for APOE were mixed with SDS sample buffer and blotted with antibody at a dilution of 1:2000. APOE and β-HB values were normalized to the average value of the vehicle and experimental group within each experimental repeat.
# The RPE handles an enormous lipid burden on a daily basis, including OS ingestion from its apical side and lipoprotein particle absorption from its basolateral side. Rather than storing excess lipid, the RPE may choose to degrade or secrete surplus lipids (FIG. 4a). A marker of lipid degradation is the production of KBs, which are secreted by the RPE apically and serve as an energy source for photoreceptors [Refs. 7,8; incorporated by reference in their entireties]. A marker of lipid secretion is the production of the lipoprotein APOE, which is a major component of drusen [Ref. 50; incorporated by reference in its entirety]. It was contemplated that autophagy inducers promote ketogenesis through degradation of ingested lipids, reducing the stimulus for secretion of drusen-promoting APOE.
# RPE from mouse eyecups = assay: Ex vivo mouse eyecup autophagy induction (LC3II/LC3I ratio); conditions: 24 hours
# Protocol: FIG. 14. Effect of autophagy positive control Torin on RPE from mouse eyecups (DMSO as control). […] Mouse eyes were enucleated, the anterior segment vitreous, and retina were removed, leaving an eyecup with RPE/choroid exposed. […] RPE/Choroid eyecup was treated with 1 uM Torin1 in our previously established RPE cell culture media for 24 hours. n=4.
# FIG. 15. Effect of Flubendazole on RPE from Mouse Eyecups (DMSO as control). Conditions with and without ammonium chloride (NH4Cl) help establish high autophagy flux rates. If true autophagy flux is happening, the LC3II/LC3I ratio should increase further upon addition of NH4Cl, as is the case here. DMSO− and FLBZ−, n=6, FLBZ+ and DMSO+ n=5. Flubendazole tested at 60 uM, lysates collected after 24 hours. Induction did occur in eyecups.
# Given the inconsistent results with detecting autophagy induction using intravitreal injection of the positive control, Torin, experiments were conducted to determine whether the lack of responsiveness to intravitreal injections was a drug access issue or whether it was a species or animal vs. culture difference. Additional experiments utilized freshly isolated mouse eyecups with the retina removed to determine whether Torin (and FLBZ) induce autophagy in this context. […] The use of ammonium chloride in these experiments blocks lysosomal degradation.
# [4] = test system: primary human fetal RPE (hfRPE) culture; assay: Autophagy induction by LC3 puncta formation (immunocytochemistry); assay type: cell-based; conditions: 24 hours exposure
# Protocol: as §1
# Autophagy induction was confirmed by assaying the formation of LC3-positive puncta (autophagosomes) by immunocytochemistry [Ref. 44; incorporated by reference in its entirety]. Puncta formation was quantified in automated/unbiased fashion using a customized macro in the Fiji/ImageJ platform [Ref. 43; incorporated by reference in its entirety].
# Autophagy induction was measured by LC3 puncta on immunocytochemistry (standard method for autophagy induction) (FIG. 19). Drugs applied to primary human RPE culture for 24 hours.
smiles,measurement,setting,value
"COC(=O)Nc1nc2cc(C(=O)c3ccc(F)cc3)ccc2[nH]1 [FLBZ, Flubendazole]","Senescence, drug after UAM had accumulated",primary hfRPE culture [1]; drug fed after one month of 20 oxOS feedings,cell senescence was not decreased
same,"Senescence, drug cofed with oxOS","primary hfRPE culture [1]; fed daily together with oxOS for 20 days in a month, vs vehicle",less senescence
same,LC3-II/LC3-I ratio (autophagy induction),[2],Induction of autophagy
same,OS phagocytosis efficiency / OS degradative capacity,primary hfRPE culture [3],no effect on OS degradative capacity
same,β-hydroxybutyrate (β-HB) production,primary RPE cultures,increased production
same,Autophagy induction in eyecups (LC3II/LC3I ratio),"RPE from mouse eyecups; mouse RPE/choroid eyecup, Torin 1-5 uM, FLBZ 12-60 uM",induces autophagy well
same,Autophagy flux in eyecups: LC3-II/LC3-I ratio with vs without ammonium chloride,"RPE from mouse eyecups; mouse eyecups, FLBZ 60 uM",higher LC3-II/LC3-I ratio with ammonium chloride than without ammonium chloride
same,LC3 puncta formation (autophagy induction),[4],induced autophagy

# Reference: patent US20240058308A1, “TREATMENT AND PREVENTION OF DRY MACULAR DEGENERATION” (The Regents of the University of Michigan, priority 2021, published 2024)
